Here are results for four molecules from patent US4652646A, “Thiazolo[3,2-a][1,2,3]triazolo[4,5-d]pyrimidine and [1,3,4]thiadiazolo[3,2-a][1,2,3]triazolo[4,5-d]pyrimidine derivatives” (Daiichi Seiyaku Co., Ltd., priority 1984, dated 1987).

Data set [1] has as its system passive cutaneous anaphylaxis (PCA) reaction. Nature of the data set: Passive cutaneous anaphylaxis (PCA) test. Particulars: 0.5 h; rat PCA; DSCG administered at 100 mg/kg of body weight. Format: in vivo, Sprague-Dowley male rats.
Data set [2] deals with release of SRS-A induced by passive peritoneal anaphylaxis (PPA) reaction. Kind of data set: Passive Peritoneal Anaphylaxis (PPA) test: inhibition of SRS-A release. The data set is classed as in vivo, Sprague-Dawley male rats. Particulars: rat PPA; for inhibition in vivo at 1 mg/kg: ip, 5 min, 1 mg/kg intraperitoneally 30 seconds before egg albumin. How it is done: (§1) 1 mg of egg albumin dissolved in 0.2 ml of saline was intramuscularly administered to each of Sprague-Dawley male rats weighing 300 to 350 g (Charles River Japan Inc.), and then 1 ml of a suspension of sterilized Bordetella pertussis (2×10^10 cells) in saline was administered intraperitoneally to the rats. After 14 days, blood was drawn from the rats to obtain an antiserum.
(§2) The test was conducted according to the method of Orange et al [Orange, R. P., Stechschulte, D. J., Austen, K. F., J. Immunol., 105, pp1087-1095 (1970)]. Sprague-Dawley male rats weighing 250 to 400 g (5 rats per group) were passively sensitized by administering 5 ml of 5-fold dilution antiserum (prepared by diluting the above antiserum with saline). 2 hours later, 5 ml of an egg albumin solution prepared by dissolving 2 mg of egg albumin in phosphate buffered saline containing 0.9 mM of calcium chloride was administered intraperitoneally to the rats. After 5 minutes, the rats were sacrificed by decapitation, and peritoneal fluid was pooled and centrifuged at 300×G at 4° C. for 10 minutes. Then, amounts of SRS-A and histamine in the supernatant were determined.
The quantitative determination of SRS-A was carried out according to the method of Stechschulte et al [Stechschulte, D. J., Auste, K. F., Bloch, K. J., J. Exp. Med., 125, pp127-147 (1967)] using a guinea pig ileum specimen in the presence of mepyramine and atropine. The amount of SRS-A was expressed in terms of unit, i.e., one unit of SRS-A activity was defined as the concentration required to produce a contraction of guinea pig ileum equal in amplitude to that produced by 5 ng of histamine, and the total released amount of SRS-A per rat (unit/rat) was calculated.
(§3) In this test, the test compound of this invention was administered as follows. 2 mg of a test compound was dissolved in 10 ml of phosphate buffered saline containing 0.9 mM of calcium chloride, an equimolar amount of sodium hydroxide to test compound, 2% of dimethyl sulfoxide and 2% of ethanol, and the solution was administered intraperitoneally to the rats at a dose of 1 mg/kg 30 seconds before the injection of egg albumin for inducing PPA. For a control group, the same solution without test compound and sodium hydroxide was administered.
(§4) The inhibitory activity on release of histamine and SRS-A by the PPA reaction in the treated group was calculated by the following formula: [formula] wherein: a represents a mean value of released amount in the control group.
(§5) b represents a mean value of released amount in the treated group.
(§6) c represents a mean value of spontaneously released amount.

In data set [3] the test system is release of histamine induced by passive peritoneal anaphylaxis (PPA) reaction. Nature of the data set: Passive Peritoneal Anaphylaxis (PPA) test: inhibition of histamine release. The data set is classed as in vivo, Sprague-Dawley male rats. Particulars: ip, 5 min; rat PPA; 1 mg/kg intraperitoneally 30 seconds before egg albumin. The method, then: as §1, §2
The quantitative determination of histamine was carried out according to the method of Shore et al [Shore, P. A., Bunkhalter, A. H., Cohn, V. H., J. Pharmacol. Exp. Ther., 127, pp182-186 (1959)], and the total released amount of histamine per rat (μg/rat) was calculated.
as §3, §4, §5, §6

For data set [4] the following is noted: background art; cited from earlier work.
The subject of data set [5] is passive cutaneous anaphylaxis (PCA) reaction. Kind of data set: Passive cutaneous anaphylaxis (PCA) test. Particulars: rat PCA; for inhibition in vivo at 20 mg/kg: 0.5 h, 20 mg/kg in 0.5% CMC, oral, 30 minutes before antigen challenge. The data set is classed as in vivo, Sprague-Dowley male rats. The method, then:
as §1
In this test, the antiserum described in Test Example 1 was used after it was diluted with saline so as to provide a blue spot having a diameter of about 10 mm in the following control group.
Sprague-Dowley male rats weighing about 180 g (5 rats per group) were sensitized by injecting 0.05 ml of the diluted antiserum into the shaved dorsal skin. 48 hours later, the animals were challenged with 1 ml of saline containing 5 mg of egg albumin and 5 mg of Evans blue dye administered via a tail vein. 30 minutes later, the rats were sacrificed by decapitation. The dorsal skin was removed, and the long and short axis of the each wheal was measured.
In this test, the test compound was administered as follows. 20 mg of a test compound was suspended in a 0.5% CMC aqueous solution, and the suspension was administered to each of the rats in an amount of 20 mg/kg 30 minutes before the antigen challenge. For a control group, only a 0.5% CMC solution was administered.
The inhibitory activity on the PCA reaction in the treated group was calculated by the following formula: [formula] wherein: a represents a mean value of blue spot area in the control group.
b represents a mean value of blue spot area in the treated group.

The nature of data set [6]: Acute oral toxicity (LD50) in rats. The note with it: rat, in vivo, oral administration.

For orientation: inhibition in vivo means the percentage by which the read-out fell short of the control. Read a high inhibition in vivo as strong suppression. Turning to `O=C(O)c1cc(=O)c2c(OCC(O)COc3cccc4oc(C(=O)O)cc(=O)c34)cccc2o1` [DSCG, Sodium Cromoglycate, reference compound], the inhibition in vivo at 100 mg/kg in data set [1] came to 8%. The inhibition in vivo at 1 mg/kg came to 0% in data set [2] and 93% in data set [3]. Further, in data set [2], the “inhibition of release of SRS-A in the PPA reaction (in words)” value is listed as “did not inhibit the release of SRS-A in the PPA reaction”. In data set [4], the “effectiveness in oral administration (in words)” value is on record as “not effective in oral administration”. For the same molecule, the “inhibition of the PCA reaction in oral administration (in words)” value in data set [5] (oral administration) is reported as “did not inhibit the PCA reaction in oral administration”.

One may read the LD50 as the dose at which mortality reaches 50%. Read a low LD50 as greater toxicity. On to `O=c1c2[nH]nnc2nc2sc(CCc3ccccc3)nn12` [Example 9, 6-(2-Phenylethyl)-[1,3,4]thiadiazolo[3,2-a][1,2,3]triazolo[4,5-d]pyrimidin-9(1H)-one], for which the values for the inhibition in vivo at 1 mg/kg in data set [2] and in data set [3] were 50% and 80%, respectively. Further, the 50% lethal dose (LD50) in data set [6] is more than 2000 mg/kg. In data set [5], this molecule came in with an inhibition in vivo at 20 mg/kg of 52%.

With `CC(C)(C)c1ccc(-c2nn3c(=O)c4[nH]nnc4nc3s2)cc1` [Example 1, 6-(4-tert-Butylphenyl)-[1,3,4]thiadiazolo[3,2-a][1,2,3]triazolo[4,5-d]pyrimidin-9(1H)-one], the inhibition in vivo at 1 mg/kg in data set [2] was found to be 64%; in data set [3], 83%. The same molecule displayed an LD50 in data set [6] of more than 2000 mg/kg. Besides, the inhibition in vivo at 20 mg/kg in data set [5] was determined as 46%.

With `O=c1c2[nH]nnc2nc2sc(-c3ccco3)nn12` [Example 17], the results for the inhibition in vivo at 1 mg/kg in data set [2] and in data set [3] were 55% and 82%, respectively. Further, the LD50 in data set [6] was more than 2000 mg/kg. In data set [5], this molecule gave an inhibition in vivo at 20 mg/kg of 50%.
